# Earlier results in publication PMC3892053, “Pharmacokinetic/pharmacodynamic modeling for the determination of a cimicoxib dosing regimen in the dog” (BMC Veterinary Research, 2013).
# Like-named read-outs stand apart in the source and are kept apart here.
# Columns and labels:
# nociceptive threshold = system: nociceptive threshold; design: method as in PMID 19186002; conditions: rats, given systemically; cited from earlier work
# COX-1/COX-2 = conditions: cited from earlier work; for greater potency for COX-2 inhibition: highly selective COX-2 inhibitors
# [1] = cited from earlier work
# g.i.t side effects = system: g.i.t side effects; design: method as in PMID 16871494; conditions: large scale survey, mainly vomiting; cited from earlier work
# wound healing = system: wound healing; design: method as in PMID 19175721; conditions: mechanism independent of prostaglandin synthesis; cited from earlier work
# [2] = as quoted in Discussion, no reference given
# [3] = population PK survey in osteoarthritic dogs
structure (smiles),measurement,setting,value
Cc1ccc(-c2cc(C(F)(F)F)nn2-c2ccc(S(N)(=O)=O)cc2)cc1 [celecoxib],hypoalgesia (ipsilateral nociceptive threshold raised above basal values),nociceptive threshold,induced a state of hypoalgesia
CN1C(C(=O)Nc2ccccn2)=C(O)c2ccccc2S1(=O)=O [piroxicam],hypoalgesia (ipsilateral nociceptive threshold raised above basal values),nociceptive threshold,not observed
COc1ccc2c(c1)c(CC(=O)O)c(C)n2C(=O)c1ccc(Cl)cc1 [indomethacin],hypoalgesia (ipsilateral nociceptive threshold raised above basal values),nociceptive threshold,not observed
CCc1ccc(Nc2c(F)c(F)cc(F)c2F)c(CC(=O)O)c1 [robenacoxib],greater potency for COX-2 inhibition,COX-1/COX-2,more than 100 fold
same,half-life,[1]; [2],1 h
same,half-life,[1]; beagle dogs,0.63 h
same,plasma clearance,[1]; dog,13.5 mL/min/kg
NS(=O)(=O)c1ccc(-n2nc(C(F)(F)F)cc2-c2ccc(F)cc2)cc1 [mavacoxib],half-life,"[1]; dog, in vivo",415 h
same,plasma clearance,"[1]; dog, in vivo",0.045 mL/min/kg
same,half-life of some beagle dogs,[1]; laboratory beagle dogs,> 720 h
same,terminal half-life in some dogs (5% of the population),[1]; [3],exceeded 80 days
same,"terminal half-life, extreme values",[1]; [3],up to 140 days
same,typical terminal half-life (population mean),[1]; [3],1060 h
CC(C(=O)O)c1ccc2c(c1)[nH]c1ccc(Cl)cc12 (stereo not drawn) [Carprofen],half-life,[1]; dogs,about 9 h
CC1(C)OC(=O)C(OCC2CC2)=C1c1ccc(S(C)(=O)=O)cc1 [firocoxib],greater potency for COX-2 inhibition,COX-1/COX-2,more than 100 fold
same,COX-1/COX-2 selectivity index,COX-1/COX-2; whole blood assay,384
same,withdrawal rate associated with g.i.t side effects,g.i.t side effects,2.9 % of dogs
same,effect on wound healing,wound healing,slow down wound healing
same,half-life,[1]; [2],7 h
same,plasma clearance,[1]; dog,7.7 mL/min/kg
same,half-life,[1]; mixed-breed dogs,5.9 h
